{"source": "patent US11186585B2", "about": "(priority 2018, dated 2021)", "key": {"healthy volunteers [1]": {"test_system": "healthy volunteers", "experiment": "Double-blind trial, heat pain threshold (hot water at 50° C.) after oral capsule", "format": "in vivo, human", "conditions": "for % MPE (analgesia): oral, individual data, 33 45 mg, NB 35 mg, 39 68 mg", "protocol": "Double-blind, NB hydrochloride and NB-39 controlled, trial of the antinociceptive effect of oral NB-33 in healthy volunteers. […] Each week a healthy volunteer would receive a pill from the assigned set in a random fashion and take it orally. […]\n(§1) Following one week of a wash out period, each volunteer repeated the protocol until all pills from the assigned set were administered. The individual data for heat pain threshold as % MPE=[(test latency−baseline latency)/(baseline latency)]×100 and for miosis as % MPE=[(test diameter−baseline diameter)/(baseline diameter)]×100 are shown in Table 2 and Table 3 respectively.\n(§2) Independent samples t-test was used to compare the means of % MPE analgesia and miosis in the two pairs of samples: NB-33 and NB and NB-33 and NB-39. All analyses were made using SPSS (v.25). • Bold indicates statistical significance at α=0.05"}, "[2]": {"test_system": "Human recombinant opiate receptor (mu, kappa or delta)", "experiment": "Human recombinant opiate receptor panel, overall profile in words", "format": "cell-based", "conditions": "CHO-K1 cells, cAMP", "protocol": "Human recombinant opiate receptor (mu, kappa or delta) expressed in CHO-K1 cells were used. Test compound (NB-33)/or vehicle was incubated with the cells (4×10E5/mL) in modified HBSS pH 7.4 buffer at […] for 30 min. The reaction was evaluated for cAMP levels by TR-FRET. Compounds were screened at 0.3, 1 and 3 uM. by Eurofins Pharma Discovery Services.\nHuman recombinant opiate receptor (mu, kappa or delta) expressed in CHO-K1 cells were used. Test compound (NX-90)/or vehicle was incubated with the cells (4×10E5/mL) in modified HBSS pH 7.4 buffer at […] for 30 min. The reaction was evaluated for cAMP levels (cAMP and/or calcium flux) by TR-FRET. Compounds were screened at 0.1, 0.3 and 1 uM by Eurofins Pharma Discovery Services."}, "[3]": {"experiment": "Stability in human plasma", "conditions": "37° C., acceptance criteria: NLT than 20% of hydrolysis after 4 hrs"}, "[4]": {"experiment": "Stability in the simulated gastro-intestinal fluid (sGIF)", "conditions": "0.5% pepsine in 0.1N aqueous HCl, 37° C.; acceptance: NLT 80% of the derivative still intact after 4 hrs"}, "healthy volunteers [5]": {"test_system": "healthy volunteers", "experiment": "Double-blind trial, miosis after oral capsule", "format": "in vivo, human", "conditions": "for % MPE (miosis): oral, individual data, 33 45 mg, NB 35 mg, 39 68 mg", "protocol": "Double-blind, NB hydrochloride and NB-39 controlled, trial of the antinociceptive effect of oral NB-33 in healthy volunteers. Each of the three healthy volunteers was assigned a set of 6 non-transparent gelatin capsules as follows: 2×NB hydrochloride (MW=393.4; 39 mg), 2×NB-33 (MW=451.6; 45 mg) and 2×NB-39 (MW=680.0; 68 mg). Each week a healthy volunteer would receive a pill from the assigned set in a random fashion and take it orally. At T=0 hr, 0.25 hr, 0.5 hr, 1 hr, 1.5 hr, 2 hr, 3 hr and 5 hr followed oral administration a heat pain threshold was measured (hot water at 50° C.) as well as miosis.\nas §1, §2"}, "rats": {"test_system": "rats", "experiment": "Randall-Selitto test after SC dose", "format": "in vivo, rat", "conditions": "for Randall-Selitto (g), individual animal: NB.HCl 3 mg/kg; for Randall-Selitto (g), individual animal / Randall-Selitto (g), Mean: NB-33.HCl 3.9 mg/kg; for Randall-Selitto (g), Mean: mean of 5, NB.HCl 3 mg/kg", "text": "FIG. 13 illustrate in the graphical form the results for 1310 NB-33, marked 1310, in comparison to the base NB compound NB, marked 1320 in FIG. 13."}, "Sprague-Dawley rats": {"test_system": "Sprague-Dawley rats", "experiment": "Antinociceptive activity, cold ethanol tail-flick test after oral gavage", "format": "in vivo, rat", "conditions": "for Analgesia (rat): oral gavage in sesame oil, 60 uM/kg, one dose, tail-flick at −20° C., cutoff 40 seconds"}}, "note": "Where “and” joins values, the source holds several entries; their conditions need not be identical. Equal values may be shown once. Entries after “also recorded” stand apart in the source; their conditions may differ. Marks after values point to notes of the source that are not given here.", "data": [{"compound": "C/C=C/C=C/C(=O)Oc1ccc2c3c1OC1C(O)CCC4(O)C(C2)N(CC2CCC2)CCC314", "note": "(stereo not drawn) [NB-33, 3-(cyclobutylmethyl)-4a,7-dihydroxy-2,3,4,4a,5,6,7,7a-octahydro-1H-4,12-methanobenzofuro[3,2-e]isoquinolin-9-yl (2E,4E)-hexa-2,4-dienoate]", "values": [{"measurement": "% MPE (analgesia)", "setting": "healthy volunteers [1]; 0 hr (baseline)", "result": 0.0, "unit": "% MPE"}, {"measurement": "% MPE (analgesia)", "setting": "healthy volunteers [1]; 0.25 hr", "result": "0.0 % MPE (2×) and 8.3 % MPE and 3.7 % MPE and 31.3 % MPE and 30.0 % MPE"}, {"measurement": "% MPE (analgesia)", "setting": "healthy volunteers [1]; 0.5 hr", "result": "19.2 % MPE and 24.0 % MPE and 66.7 % MPE and 48.1 % MPE and 37.5 % MPE (2×)"}, {"measurement": "% MPE (analgesia)", "setting": "healthy volunteers [1]; 1 hr", "result": "100.0 % MPE and 80.0 % MPE and 183.3 % MPE and 59.3 % MPE and 50.0 % MPE and 67.5 % MPE"}, {"measurement": "% MPE (analgesia)", "setting": "healthy volunteers [1]; 1.5 hr", "result": "115.4 % MPE and 140.0 % MPE and 87.5 % MPE and 114.8 % MPE and 68.8 % MPE and 97.5 % MPE"}, {"measurement": "% MPE (analgesia)", "setting": "healthy volunteers [1]; 2 hr", "result": "111.5 % MPE and 124.0 % MPE and 191.7 % MPE and 185.2 % MPE and 81.3 % MPE and 157.5 % MPE"}, {"measurement": "% MPE (analgesia)", "setting": "healthy volunteers [1]; 2.5 hr", "result": "119.2 % MPE and 96.0 % MPE and 112.5 % MPE (2×) and 133.3 % MPE and 31.3 % MPE"}, {"measurement": "% MPE (analgesia)", "setting": "healthy volunteers [1]; 3 hr", "result": "157.7 % MPE and 60.0 % MPE and 45.8 % MPE and 118.5 % MPE and 25.0 % MPE and 27.5 % MPE"}, {"measurement": "% MPE (analgesia)", "setting": "healthy volunteers [1]; 5 hr", "result": "115.4 % MPE and 24.0 % MPE and 20.8 % MPE and 44.4 % MPE and 18.8 % MPE and 22.5 % MPE"}, {"measurement": "analgesia in humans, in words", "setting": "healthy volunteers [1]; given orally, compared with equivalent dose of Nalbuphine (NB) and NB-39", "result": "superior"}, {"measurement": "pharmacological profile at opiate receptors, in words", "setting": "[2]", "result": "not a pharmacologically inert compound"}, {"measurement": "Stable in plasma", "setting": "[3]", "result": "No"}, {"measurement": "Stable in sGIF", "setting": "[4]", "result": "Yes"}, {"measurement": "% MPE (miosis)", "setting": "healthy volunteers [5]; 0 hr (baseline)", "result": 0.0, "unit": "% MPE"}, {"measurement": "% MPE (miosis)", "setting": "healthy volunteers [5]; 0.25 hr", "result": "26.7 % MPE and −8.8 % MPE and 0.3 % MPE and 20.0 % MPE and 0.0 % MPE and −5.0 % MPE"}, {"measurement": "% MPE (miosis)", "setting": "healthy volunteers [5]; 0.5 hr", "result": "26.7 % MPE (3×) and 3.4 % MPE and 33.3 % MPE and −6.3 % MPE"}, {"measurement": "% MPE (miosis)", "setting": "healthy volunteers [5]; 1 hr", "result": "40.4 % MPE (2×) and 24.0 % MPE and 42.2 % MPE and 33.9 % MPE and 26.7 % MPE"}, {"measurement": "% MPE (miosis)", "setting": "healthy volunteers [5]; 1.5 hr", "result": "46.2 % MPE and 20.6 % MPE and 36.5 % MPE (2×) and 42.2 % MPE and 33.9 % MPE"}, {"measurement": "% MPE (miosis)", "setting": "healthy volunteers [5]; 2 hr", "result": "55.9 % MPE and 37.8 % MPE and 46.2 % MPE (2×) and 42.2 % MPE and 42.9 % MPE"}, {"measurement": "% MPE (miosis)", "setting": "healthy volunteers [5]; 2.5 hr", "result": "65.7 % MPE and 46.4 % MPE and 63.7 % MPE and 29.5 % MPE and 33.9 % MPE and 46.2 % MPE"}, {"measurement": "% MPE (miosis)", "setting": "healthy volunteers [5]; 3 hr", "result": "29.0 % MPE and 3.4 % MPE and 36.5 % MPE (2×) and 15.6 % MPE and 25.0 % MPE"}, {"measurement": "% MPE (miosis)", "setting": "healthy volunteers [5]; 5 hr", "result": "32.1 % MPE and 3.4 % MPE and 36.5 % MPE and 9.3 % MPE and 17.2 % MPE and 33.7 % MPE"}, {"measurement": "effect on pupil dilation (miosis) in humans, in words", "setting": "healthy volunteers [5]; oral administration", "result": "superior; also recorded: significant effect"}, {"measurement": "analgesic properties vs equimolar dose of the parent opioid NB, in words (Graph 1, FIG. 13)", "setting": "rats; Randall-Selitto, rats", "result": "superior analgesic properties"}, {"measurement": "analgesia in rats, in words", "setting": "Sprague-Dawley rats; given orally, compared with equivalent dose of Nalbuphine (parent opioid)", "result": "excellent and superior results; also recorded: better analgesia than the parent opioid"}, {"measurement": "Analgesia (rat)", "setting": "Sprague-Dawley rats", "result": "Excellent"}]}, {"compound": "C=CCN1CCC23c4c5ccc(OC(=O)/C=C/C=C/C)c4OC2C(=O)CCC3(O)C1C5", "note": "(stereo not drawn) [NX-90, 3-allyl-4a-hydroxy-7-oxo-2,3,4,4a,5,6,7,7a-octahydro-1H-4,12-methanobenzofuro[3,2-e]isoquinolin-9-yl (2E,4E)-hexa-2,4-dienoate]", "values": [{"measurement": "pharmacological profile at opiate receptors, in words", "setting": "[2]", "result": "not a pharmacologically inert compound"}]}, {"compound": "C/C=C/C=C/C(=O)Oc1ccc2c3c1OC1C(O)CCC4(O)C(C2)N(CC2CCC2)CCC314.Cl", "note": "(stereo not drawn) [NB-56, 3-(cyclobutylmethyl)-9-(((2E,4E)-hexa-2,4-dienoyl)oxy)-4a,7-dihydroxy-2,3,4,4a,5,6,7,7a-octahydro-1H-4,12-methanobenzofuro[3,2-e]isoquinolin-3-ium chloride]", "values": [{"measurement": "Stable in plasma", "setting": "[3]", "result": "No"}, {"measurement": "Stable in sGIF", "setting": "[4]", "result": "Yes"}, {"measurement": "Randall-Selitto (g), individual animal", "setting": "rats; Post-dose 0.5 hr", "result": "121 g and 120 g and 207 g and 161 g and 96 g"}, {"measurement": "Randall-Selitto (g), Mean", "setting": "rats; Post-dose 0.5 hr", "result": "141.0* g"}, {"measurement": "Randall-Selitto (g), individual animal", "setting": "rats; Post-dose 1 hr", "result": "98 g and 103 g and 199 g and 73 g and 86 g"}, {"measurement": "Randall-Selitto (g), Mean", "setting": "rats; Post-dose 1 hr", "result": 111.8, "unit": "g"}, {"measurement": "Randall-Selitto (g), individual animal", "setting": "rats; Post-dose 2 hr", "result": "99 g and 94 g and 214 g and 102 g and 85 g"}, {"measurement": "Randall-Selitto (g), Mean", "setting": "rats; Post-dose 2 hr", "result": 118.8, "unit": "g"}, {"measurement": "Randall-Selitto (g), individual animal", "setting": "rats; Post-dose 4 hr", "result": "83 g and 71 g and 136 g and 63 g and 97 g"}, {"measurement": "Randall-Selitto (g), Mean", "setting": "rats; Post-dose 4 hr", "result": 90.0, "unit": "g"}, {"measurement": "Randall-Selitto (g), individual animal", "setting": "rats; Post-dose 6 hr", "result": "79 g and 64 g and 101 g and 65 g and 85 g"}, {"measurement": "Randall-Selitto (g), Mean", "setting": "rats; Post-dose 6 hr", "result": 78.8, "unit": "g"}, {"measurement": "Randall-Selitto (g), individual animal", "setting": "rats; Pre-treatment (baseline)", "result": "93 g and 82 g and 98 g and 80 g and 96 g"}, {"measurement": "Randall-Selitto (g), Mean", "setting": "rats; Pre-treatment (baseline)", "result": 89.8, "unit": "g"}, {"measurement": "Analgesia (rat)", "setting": "Sprague-Dawley rats", "result": "No"}]}]}
